Test results published in the supplement of paper PMC8671470.

Legend:
Conditions in all cases: 72 h
BV-173 [1] = assay: cell viability (% survival relative to DMSO control, bortezomib = 0%); higher = less cytotoxic
Procedure, shortened: (§1)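 Fifteen myeloid leukaemia cell lines were exposed to compounds at 1, 10, 100, 1000 or 10000 nM in 384-well plates for 72 h at 37 °C and 5% CO2. Viability was read by CellTiter-Glo luminescence and normalised, with vehicle as 100% and a 10 µM positive control as 0%. Values are percent survival averaged over duplicates.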

KCL-22 [2] = assay: as above
Procedure, shortened: as §1

SHI-1 [3] = assay: as above
Procedure, shortened: as §1

LAMA-84 [4] = assay: as above
Procedure, shortened: as §1

HL-60 [5] = assay: as above
Procedure, shortened: as §1

ML-2 [6] = assay: as above
Procedure, shortened: as §1

KG-1 [7] = assay: as above
Procedure, shortened: as §1

NOMO-1 [8] = assay: as above
Procedure, shortened: as §1

HEL [9] = assay: as above
Procedure, shortened: as §1

MV4-11 [10] = assay: as above
Procedure, shortened: as §1

K-562 [11] = assay: as above
Procedure, shortened: as §1

MOLM-13 [12] = assay: as above
Procedure, shortened: as §1

KU-812 [13] = assay: as above
Procedure, shortened: as §1

Mono-Mac-6 [14] = assay: as above
Procedure, shortened: as §1

THP-1 [15] = assay: as above
Procedure, shortened: as §1

BV-173 [16] = test system: BV-173
Procedure, shortened: (§2)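 Fifteen myeloid leukaemia cell lines were seeded in RPMI 1640 at densities titrated to the linear growth range and placed in 384-well plates with acoustically pre-printed compounds at five tenfold doses from 1 to 10,000 nM, in duplicate. After 72 h at 37 °C with 5% CO2, luminescent ATP viability was normalised to vehicle and to a positive control at 10 µM, and curves were fitted with a four-parameter log-logistic model. The IC50 was obtained from these fits.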

KCL-22 [17] = test system: KCL-22
Procedure, shortened: as §2

SHI-1 [18] = test system: SHI-1
Procedure, shortened: as §2

LAMA-84 [19] = test system: LAMA-84
Procedure, shortened: as §2

HL-60 [20] = test system: HL-60
Procedure, shortened: as §2

ML-2 [21] = test system: ML-2
Procedure, shortened: as §2

KG-1 [22] = test system: KG-1
Procedure, shortened: as §2

NOMO-1 [23] = test system: NOMO-1
Procedure, shortened: as §2

HEL [24] = test system: HEL
Procedure, shortened: as §2

MV4-11 [25] = test system: MV4-11
Procedure, shortened: as §2

K-562 [26] = test system: K-562
Procedure, shortened: as §2

MOLM-13 [27] = test system: MOLM-13
Procedure, shortened: as §2

KU-812 [28] = test system: KU-812
Procedure, shortened: as §2

Mono-Mac-6 [29] = test system: Mono-Mac-6
Procedure, shortened: as §2

THP-1 [30] = test system: THP-1
Procedure, shortened: as §2

**Q.** Which cell viability (BV-173 [1]; 1 nM) does the source give for `Nc1nc(O)c2c(CCc3ccc(C(=O)N[C@@H](CCC(=O)O)C(=O)O)cc3)c[nH]c2n1` [Pemetrexed] here?
**A.** 89.2%

**Q.** And the cell viability (BV-173 [1]; 10 nM)?
**A.** 91.9%

**Q.** And the cell viability (BV-173 [1]; 100 nM)?
**A.** 104%

**Q.** And the cell viability (BV-173 [1]; 1000 nM)?
**A.** 4.73%

**Q.** And the cell viability (BV-173 [1]; 10000 nM)?
**A.** 1.8%

**Q.** And the cell viability (KCL-22 [2]; 1 nM)?
**A.** 98.5%

**Q.** And the cell viability (KCL-22 [2]; 10 nM)?
**A.** 102%

**Q.** What about the cell viability (KCL-22 [2]; 100 nM) of the same compound?
**A.** 78.4%

**Q.** And the cell viability (KCL-22 [2]; 1000 nM)?
**A.** 36.9%

**Q.** And the cell viability (KCL-22 [2]; 10000 nM)?
**A.** 24.3%

**Q.** What about the cell viability (SHI-1 [3]; 1 nM) of the same compound?
**A.** 99.2%

**Q.** What about the cell viability (SHI-1 [3]; 10 nM) of the same compound?
**A.** 102%

**Q.** What about the cell viability (SHI-1 [3]; 100 nM) of the same compound?
**A.** 106%

**Q.** What about the cell viability (SHI-1 [3]; 1000 nM) of the same compound?
**A.** 68%

**Q.** And the cell viability (SHI-1 [3]; 10000 nM)?
**A.** 43.4%

**Q.** And the cell viability (LAMA-84 [4]; 1 nM)?
**A.** 99%

**Q.** What about the cell viability (LAMA-84 [4]; 10 nM) of the same compound?
**A.** 99.3%

**Q.** And the cell viability (LAMA-84 [4]; 100 nM)?
**A.** 40%

**Q.** And the cell viability (LAMA-84 [4]; 1000 nM)?
**A.** 30.7%

**Q.** And the cell viability (LAMA-84 [4]; 10000 nM)?
**A.** 26%

**Q.** And the cell viability (HL-60 [5]; 1 nM)?
**A.** 110%

**Q.** What about the cell viability (HL-60 [5]; 10 nM) of the same compound?
**A.** 99.6%

**Q.** What about the cell viability (HL-60 [5]; 100 nM) of the same compound?
**A.** 113%

**Q.** What about the cell viability (HL-60 [5]; 1000 nM) of the same compound?
**A.** 31.5%

**Q.** What about the cell viability (HL-60 [5]; 10000 nM) of the same compound?
**A.** 9.36%

**Q.** And the cell viability (ML-2 [6]; 1 nM)?
**A.** 102%

**Q.** And the cell viability (ML-2 [6]; 10 nM)?
**A.** 101%

**Q.** And the cell viability (ML-2 [6]; 100 nM)?
**A.** 96.3%

**Q.** What about the cell viability (ML-2 [6]; 1000 nM) of the same compound?
**A.** 14%

**Q.** What about the cell viability (ML-2 [6]; 10000 nM) of the same compound?
**A.** 10.5%

**Q.** And the cell viability (KG-1 [7]; 1 nM)?
**A.** 92%

**Q.** What about the cell viability (KG-1 [7]; 10 nM) of the same compound?
**A.** 93.5%

**Q.** And the cell viability (KG-1 [7]; 100 nM)?
**A.** 91.6%

**Q.** And the cell viability (KG-1 [7]; 1000 nM)?
**A.** 108%

**Q.** What about the cell viability (KG-1 [7]; 10000 nM) of the same compound?
**A.** 102%

**Q.** And the cell viability (NOMO-1 [8]; 1 nM)?
**A.** 91%

**Q.** And the cell viability (NOMO-1 [8]; 10 nM)?
**A.** 94.8%

**Q.** What about the cell viability (NOMO-1 [8]; 100 nM) of the same compound?
**A.** 82.8%

**Q.** What about the cell viability (NOMO-1 [8]; 1000 nM) of the same compound?
**A.** 51.9%

**Q.** And the cell viability (NOMO-1 [8]; 10000 nM)?
**A.** 50.2%

**Q.** What about the cell viability (HEL [9]; 1 nM) of the same compound?
**A.** 104%

**Q.** And the cell viability (HEL [9]; 10 nM)?
**A.** 90.7%

**Q.** And the cell viability (HEL [9]; 100 nM)?
**A.** 57.8%

**Q.** What about the cell viability (HEL [9]; 1000 nM) of the same compound?
**A.** 11.6%

**Q.** And the cell viability (HEL [9]; 10000 nM)?
**A.** 7.51%

**Q.** What about the cell viability (MV4-11 [10]; 1 nM) of the same compound?
**A.** 98.7%

**Q.** What about the cell viability (MV4-11 [10]; 10 nM) of the same compound?
**A.** 94.2%

**Q.** And the cell viability (MV4-11 [10]; 100 nM)?
**A.** 106%

**Q.** And the cell viability (MV4-11 [10]; 1000 nM)?
**A.** 13.4%

**Q.** What about the cell viability (MV4-11 [10]; 10000 nM) of the same compound?
**A.** 5.7%

**Q.** What about the cell viability (K-562 [11]; 1 nM) of the same compound?
**A.** 95.8%

**Q.** And the cell viability (K-562 [11]; 10 nM)?
**A.** 104%

**Q.** And the cell viability (K-562 [11]; 100 nM)?
**A.** 92.3%

**Q.** And the cell viability (K-562 [11]; 1000 nM)?
**A.** 68.4%

**Q.** What about the cell viability (K-562 [11]; 10000 nM) of the same compound?
**A.** 27.8%

**Q.** What about the cell viability (MOLM-13 [12]; 1 nM) of the same compound?
**A.** 95.6%

**Q.** What about the cell viability (MOLM-13 [12]; 10 nM) of the same compound?
**A.** 101%

**Q.** What about the cell viability (MOLM-13 [12]; 100 nM) of the same compound?
**A.** 93.5%

**Q.** And the cell viability (MOLM-13 [12]; 1000 nM)?
**A.** 4.73%

**Q.** And the cell viability (MOLM-13 [12]; 10000 nM)?
**A.** 1.7%

**Q.** What about the cell viability (KU-812 [13]; 1 nM) of the same compound?
**A.** 98.9%

**Q.** And the cell viability (KU-812 [13]; 10 nM)?
**A.** 102%

**Q.** What about the cell viability (KU-812 [13]; 100 nM) of the same compound?
**A.** 71.1%

**Q.** And the cell viability (KU-812 [13]; 1000 nM)?
**A.** 38.6%

**Q.** What about the cell viability (KU-812 [13]; 10000 nM) of the same compound?
**A.** 39.3%

**Q.** And the cell viability (Mono-Mac-6 [14]; 1 nM)?
**A.** 91.2%

**Q.** And the cell viability (Mono-Mac-6 [14]; 10 nM)?
**A.** 92.2%

**Q.** And the cell viability (Mono-Mac-6 [14]; 100 nM)?
**A.** 87.3%

**Q.** What about the cell viability (Mono-Mac-6 [14]; 1000 nM) of the same compound?
**A.** 23.5%

**Q.** What about the cell viability (Mono-Mac-6 [14]; 10000 nM) of the same compound?
**A.** 20.3%

**Q.** And the cell viability (THP-1 [15]; 1 nM)?
**A.** 85%

**Q.** What about the cell viability (THP-1 [15]; 10 nM) of the same compound?
**A.** 96%

**Q.** And the cell viability (THP-1 [15]; 100 nM)?
**A.** 101%

**Q.** What about the cell viability (THP-1 [15]; 1000 nM) of the same compound?
**A.** 61.7%

**Q.** And the cell viability (THP-1 [15]; 10000 nM)?
**A.** 56.8%

**Q.** What about the “IC50 (cell viability)” value (BV-173 [16]) of the same compound?
**A.** 381 nM

**Q.** What about the “IC50 (cell viability)” value (KCL-22 [17]) of the same compound?
**A.** 279 nM

**Q.** And the “IC50 (cell viability)” value (SHI-1 [18])?
**A.** 2320 nM

**Q.** What about the “IC50 (cell viability)” value (LAMA-84 [19]) of the same compound?
**A.** 58.5 nM

**Q.** And the “IC50 (cell viability)” value (HL-60 [20])?
**A.** 617 nM

**Q.** And the “IC50 (cell viability)” value (ML-2 [21])?
**A.** 336 nM

**Q.** And the “IC50 (cell viability)” value (KG-1 [22])?
**A.** > 10000 nM

**Q.** What about the “IC50 (cell viability)” value (NOMO-1 [23]) of the same compound?
**A.** 1370 nM

**Q.** What about the “IC50 (cell viability)” value (HEL [24]) of the same compound?
**A.** 116 nM

**Q.** What about the “IC50 (cell viability)” value (MV4-11 [25]) of the same compound?
**A.** 425 nM

**Q.** What about the “IC50 (cell viability)” value (K-562 [26]) of the same compound?
**A.** 1660 nM

**Q.** And the “IC50 (cell viability)” value (MOLM-13 [27])?
**A.** 305 nM

**Q.** And the “IC50 (cell viability)” value (KU-812 [28])?
**A.** 239 nM

**Q.** And the “IC50 (cell viability)” value (Mono-Mac-6 [29])?
**A.** 312 nM

**Q.** What about the “IC50 (cell viability)” value (THP-1 [30]) of the same compound?
**A.** 7020 nM
